These results are taken from PubChem BioAssay AID651985 (The Scripps Research Institute Molecular Screening Center, 2013).

The test system of experiment [1] is LYPLA1. Briefly: PubChem AID 651985. Particulars: C57 mice dosed, tissue gel ABPP with NHU5 probe, stronger effect = higher value.
In experiment [2] the test system is LYPLA2. Briefly: PubChem AID 651985. Particulars: C57 mice dosed, tissue gel ABPP with NHU5 probe, stronger effect = higher value.

Molecules are shown by their SMILES. Calls of active or inactive are those of the source. How the calls were made is not given here.

As a reminder, the inhibition is how much of the control response was suppressed. Turning to `COc1ccc(N2CCN(C(=O)c3cc4c(s3)-c3ccccc3S(=O)(=O)C4)CC2)cc1`, the inhibition was 0% in experiment [1] (heart); 0% (inactive) in experiment [1]; 0% in experiment [1] (kidney); 0% in experiment [1] (liver); 0% in experiment [1] (lung); 100% in experiment [2] (heart). For the same compound, the inhibition is 50% in experiment [2], 75% in experiment [2] (kidney), 0% in experiment [2] (liver) and 100% in experiment [2] (lung).
Turning to `O=C(CN1CCN(C(=O)c2ccco2)CC1)Nc1cc(C(F)(F)F)ccc1Cl`, the inhibition in experiment [1] (heart) was 100%; in experiment [1], 25%; in experiment [1] (kidney), 75%; in experiment [1] (liver) it was 0%; in experiment [1] (lung), 100%; in experiment [2] (heart) it was 0%. Moreover, the inhibition in experiment [2] is 0% (inactive); in experiment [2] (kidney), 0%; in experiment [2] (liver), 0%; in experiment [2] (lung), 0%.
